The text below walks through data of US20170368054A1, “Treatment of Glaucoma Using Laquinimod” (Teva Pharmaceutical Industries, Ltd., priority 2013, published 2017).

The test system of assay [1] is genes related to antigen presentation and corresponding inflammatory pathways. The conditions noted are these: mainly via the NFkB pathway (Gurevich, 2010); cited from earlier work.
The test system of assay [2] is optic nerve. The assay is described as follows: Optic nerve injury grading (toluidine blue cross-sections, Grade 1-5) in rat OHT model. Format: in vivo, Brown Norway rats (Rattus norvegicus). The conditions noted are these: for Mean ON Injury Grade (Mean±SD), Non-OHT (control) eyes / Mean ON Injury Grade (Mean±SD), OHT optic nerves: grade scale 1-5; for Mean ON Injury Grade (Mean±SD), OHT optic nerves: vehicle 3.0±1.6. On the procedure:
Animals were euthanized 5 weeks after the 2nd HSI. The retinas were flat-mounted, slide IDs were masked and 8 regions per retina were imaged using a confocal microscope. RGC at these regions were counted using the Image J software. After the optic nerves were extracted, they were plastic-embedded, sectioned and stained with Toluidine Blue at Schepens Eye Research Institute, Boston, Mass.. The injury in the optic nerves was evaluated and graded by microscopic examination in a masked fashion. The eyes were immediately enucleated with the optic nerve attached. An approximately 2.0 mm piece of the ON proximal to the globe is separated and labeled with tissue mark to indicate the orientation of the nerve. The ON piece is placed in Modified Karnovsky's Fixative in 0.1 M Na cacodylate buffer and kept at 4±2° C. overnight. The next day ON piece was washed at least three times for at least 10 minutes each in 0.1 M Na cacodylate buffer and stored in 0.1 M Na cacodylate buffer at 4±2° C. After specimens were transferred to a contracted processing facility, within a week, the optic nerves were processed for plastic embedding: After post-fixation in 2% osmium tetroxide in 0.1 M Na cacodylate buffer for at least 1.5 hours, ONs were dehydrated in graded ethanols, transitioned in propylene oxide and infiltrated with propylene oxide and epon mixtures. One to five (1-5) μm-thick cross-sections were taken via a microtome at the ON end approximately 2.0 mm away from the globe. ON sections were stained with 1% toluidine blue and cover-slipped. The processed specimens were returned. The identification of the ONs were masked prior to injury analysis. The ON cross-sections were analyzed for injury by light microscopy as follows: The damaging effect of the sustained IOP elevation was assessed by qualitative microscopic analysis of the ON cross-sections using a well-established grading system described in Table 9. This method allowed damage analysis of the entire retinal ganglion cell output (the ON) in one section by light microscopy and was more sensitive than counting total axons especially if there is mild nerve damage. […] The extent of injury was then graded by light microscopy based on a pattern of damage observed in rats with elevated IOP. [table] The damaging effect of the sustained IOP elevation was assessed by qualitative microscopic analysis of the ON cross-sections using a well-established grading system described in Table 9. This method allowed damage analysis of the entire retinal ganglion cell output (the ON) in one section by light microscopy and was more sensitive than counting total axons especially if there is mild nerve damage. […] The extent of injury was then graded by light microscopy based on a pattern of damage observed in rats with elevated IOP.

For assay [3], the system named is retinal ganglion cells (RGC). As to the kind of experiment: Fluoro-Gold labeled RGC survival in rat hypertonic saline injection glaucoma model. The settings on record: for Mean % RGC Loss (100-(100 x OHT/Non-OHT Mean RGC Counts per Retina)): OHT vs non-OHT retina, 5 weeks after 2nd HSI, vehicle 34.8. The format is in vivo, Brown Norway rats (Rattus norvegicus). An excerpt:
The purpose of this study was to assess the efficacy of laquinimod in protecting against chronic ocular hypertension (OHT) and RGC degeneration in a rat model of glaucoma, created by injecting hypertonic saline into the episcleral veins in one eye of the Brown Norway rat. In this model, RGC degeneration occurs in response to increased IOP and OHT similar to that in human patients with glaucoma. The rat model of chronic ocular hypertension (OHT)/glaucoma was created in the left eye of each animal via two hypertonic saline injections (HSI) each one week apart. The un-injected right eye served as the control. Throughout the study, the vehicle control and the test articles were prepared weekly. Rats were dosed once daily for oral administration (Group 5) and twice daily for topical administration groups (Groups 1-4), starting on the day of the first HSI until euthanasia. Detailed ocular examinations were performed one week after the 2nd HSI and on the day of euthanasia. […] Post-dose IOP was measured weekly for 5 weeks starting one week after the 2nd HSI until euthanasia. Animals were euthanized 5 weeks after the 2nd HSI. The retinas were flat-mounted, slide IDs were masked and 8 regions per retina were imaged using a confocal microscope. RGC at these regions were counted using the Image J software. After the optic nerves were extracted, they were plastic-embedded, sectioned and stained with Toluidine Blue at Schepens Eye Research Institute, Boston, Mass.. The injury in the optic nerves was evaluated and graded by microscopic examination in a masked fashion. Chronic ocular hypertension (OHT) was created through two hypertonic saline injections (HSI) which were performed one week apart in the left eye. For each HSI, after the rats were anesthetized with a suitable anesthetic, a suture thread was passed through the left eyelid to fix it open. A local anesthetic (e.g., 0.5% Proparacaine HCl Ophthalmic Solution) was applied on the surgery eye topically. The conjunctiva was incised with Vannas scissors to expose an episcleral vein. An occluder ring with a groove was fitted around the left eye to provide unobstructed passage for the selected episcleral vein while obstructing the other episcleral veins. Using a pulled-glass needle, 50-250 μL of 1.8 M hypertonic saline solution was injected into the exposed episcleral vein to scar the aqueous humor outflow pathway in an attempt to elevate IOP. The ring was removed shortly after the injection. The un-operated right eye served as the control. Ophthalmic ointment was applied to both eyes to prevent corneal damage. For each HSI procedure, buprenorphine was administered subcutaneously for approximately 24 hours to manage post-operative pains as appropriate. Clinical observations was performed at least once daily as described in Table 6. Approximately one week prior to euthanasia, RGC was labeled with the retrograde tracer FG. First, animals were sedated with appropriate anesthesia. […] Rats received subcutaneous injections of buprenorphine for approximately 48 hours to manage post-surgery pain as appropriate. The eyes were fixed in 4% paraformaldehyde (PFA) fixative at 4±2° C. for at least 24 hours. Retinas were dissected and flat whole-mounted for confocal visualization and imaging. The actual identification of the retinal flat-mounts was masked prior to confocal imaging. Eight regions per retina were imaged using a confocal microscope and the RGC in each region were counted as follows: Retinal images were evaluated by confocal fluorescence microscopic examination. A three-dimensional view of the x-axis, y-axis, and z-axis were designed and processed using a specific system of image analysis software (Leica Confocal Software) to obtain an image of the viable RGCs labeled with FG. Two areas which were approximately 1.5 mm and 2.75 mm away from the center of the ON head were selected in each retinal quadrant (8 regions per retina) and serial images of the retinal ganglion cell layer were taken by the Confocal Microscope. […]

Several values for one entry are separate records, joined by “and”; a condition that tells them apart may be missing. Equal values may be shown once. Entries after “also recorded” stand apart in the source; their conditions may differ.

With `CCN(C(=O)c1c(O)c2c(Cl)cccc2n(C)c1=O)c1ccccc1` [Laquinimod], the “suppression of genes related to antigen presentation and corresponding inflammatory pathways” value in assay [1] is “induced suppression”. In addition, the “Mean ON Injury Grade (Mean±SD), Non-OHT (control) eyes” value came out at 1.1±0.1 in assay [2] (Group 1, topical 1% laquinimod (left eye dosed only)); 1.2±0.2 in assay [2] (Group 3, topical 4% laquinimod (left eye dosed only)); 1.2±0.3 in assay [2] (Group 4, topical 0.25% laquinimod (left eye dosed only)); 1.2±0.2 in assay [2] (Group 5, oral 0.1% laquinimod). For the same compound, the “Mean ON Injury Grade (Mean±SD), OHT optic nerves” value is 2.5±1.3 in assay [2] (Group 1, topical 1% laquinimod); 3.0±1.5 in assay [2] (Group 3, topical 4% laquinimod); 2.8±1.3 in assay [2] (Group 4, topical 0.25% laquinimod); 2.7±1.5 in assay [2] (Group 5, oral 0.1% laquinimod). For the same compound, in assay [2] (all groups, P<0.05), the “Mean ON injury grades, OHT eyes compared to Non-OHT control eyes, two-tailed paired-t tests” value is given as “significantly greater in the OHT eyes”. In assay [2] (all groups, P=0.98), the “Mean ON injury grades in OHT and Non-OHT eyes versus groups, Two-Way ANOVA eye versus group interaction” value was “groups did not differ”. The “FG-Labeled RGC counts per mm2, OHT vs Non-OHT retinas, two-tailed paired-t test” value in assay [3] (Group 1, 1% Laquinimod topical, P=0.189) was “no statistically significant difference”; in assay [3] (Group 3, 4% Laquinimod topical, P=0.071), “statistically marginally different”; in assay [3] (Group 4, 0.25% Laquinimod topical, P=0.033), “fewer RGCs in the OHT eye”; in assay [3] (Group 5, 0.1% Laquinimod oral, P=0.075) it was “statistically marginally different”. Moreover, the “Mean % RGC Loss (100-(100 x OHT/Non-OHT Mean RGC Counts per Retina))” value in assay [3] (Group 1, topical 1% laquinimod twice daily) is 17.6±33.8% and 17.6%; in assay [3] (Group 3, topical 4% laquinimod twice daily), 26.8±36.4% and 26.8%; in assay [3] (Group 4, topical 0.25% laquinimod twice daily) it was 21.6±21.7% and 21.6%; in assay [3] (Group 5, oral 0.1% laquinimod once daily (1 mL)), 22.9±33.1% and 22.9%. For the same compound, in assay [3] (all groups (0.25%, 1%, 4% topical, 0.1% oral, vehicle), P=0.919), the “RGC counts in OHT and Non-OHT eyes versus groups, Two-Way ANOVA eye versus group interaction” value is reported as “groups did not differ”. The “Neuroprotection for the RGC (conclusion from RGC counts)” value in assay [3] (daily topical application of 1% Laquinimod, Group 1) is “may be neuroprotective; also recorded: trend towards neuroprotection”.
